Measurements taken from patent publication US6287840A (Axys Pharmaceuticals, Inc., priority 1999, dated 2001).
pKi: −log10 of the molar value. Like-named read-outs stand apart in the source and are kept apart here.

Key:
U251MGn = assay: Matrigel barrier migration assay, U251MGn; type: cell-based, human; parameters: dose or concentration left out as unconfirmed
Description: (§1) Two permanent human glioma cell lines (U87MG and U251MGn) and a well characterized low passage primary culture derived from a CB-positive glioblastoma (HF66) were used to assess the migratory behavior in the Matrigel barrier migration assay in the presence of graded concentrations of four compounds.
(§2) Using the Matrigel assay, Mu-Leu-HphVSPh, Mu-Tyr-HphVSPh, Mu-Phe-HphVSPh, and Mu-Tyr(I2)-HphVSPh (all at 10 mM) inhibited U251MGn by 67, 56, 29, & 20% respectively, while the U87MG cells were inhibited 53, 75, 63, & 56% respectively. The primary culture HF66 cells were inhibited only 10% by these compounds at the same concentration.

[1] = biological target: T1, Cathepsin L from rat liver (Rattus norvegicus, UniProt P07154); assay: Inhibition of cathepsin L, Z-Phe-Arg-AMC fluorescence progress curves; type: biochemical; settings: for pKi: corrected for substrate; for kobs /[I]* (approximate second-order inactivation constant): values marked *; for kobs /[I]* (approximate second-order inactivation constant) / k/KI (kirr/KI): 25° C., pH 6.2; for k/KI (kirr/KI): values without asterisk
T1 construct: Cathepsin L from rat liver; from tissue; host or cells: rat liver
T1 sequence (P07154 114-288 limits assumed): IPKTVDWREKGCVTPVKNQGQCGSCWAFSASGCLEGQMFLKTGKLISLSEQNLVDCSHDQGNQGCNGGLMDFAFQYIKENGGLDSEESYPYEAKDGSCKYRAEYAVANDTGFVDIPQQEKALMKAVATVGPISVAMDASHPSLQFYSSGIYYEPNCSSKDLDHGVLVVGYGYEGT
T1 sequence (P07154 291-334 limits assumed): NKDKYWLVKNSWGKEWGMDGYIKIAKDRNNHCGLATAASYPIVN
Procedure, shortened: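 Progress curves of AMC release (380/460 nm) over at least 3 inactivation half-times were fitted to kobs, reported as kobs/[I] or, via 1/[I] vs 1/kobs, kirr, KI (substrate-corrected) and kirr/KI.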

[2] = system: Trypanosoma cruzi amastigote infected macrophages; assay: In vitro antiprotozoal activity, Trypanosoma cruzi; type: cell-based; parameters: key to percentage inhibition, T. cruzi: the term "T" indicates the molecule to have displayed cytotoxicity
Description: (§3) In this table, the in vitro antiprotozoal activities of the indicated compounds were measured as percentage inhibition of Leishmania donovani amastigote infecteda mouse peritoneal macrophages, Trypanosoma cruzi amastigote infected macrophages, and Trypanosoma brucei extracellular bloodstream forms.

[3] = system: human malarial parasite Plasmodium falciparum; assay: In vitro protease activity of malarial parasite, substrate Z-Phe-Arg-AMC; type: biochemical; settings: cells printed in nM; read-out: P. falciparum IC50 (human)
Source text: (§4) The following table summarizes the comparative IC50 values for selected cysteine protease inhibitors against the human malarial parasite Plasmodium falciparum and the mouse malarial parasite Plasmodium vinckei. The substrate used to measure in vitro protease activity was Z-Phe-Arg-AMC.

[4] = system: mouse malarial parasite Plasmodium vinckei; assay: as above; type: biochemical; settings: cells printed in nM; read-out: P. vinckei IC50 (murine)
Source text: as §4

Cloned cathepsin S = biological target: T2, Cloned cathepsin S (Homo sapiens, UniProt P25774); assay: Inhibition of cathepsin S, Z-Val-Val-Arg-AMC fluorescence progress curves; type: biochemical; settings: for pKi: corrected for substrate; for k/KI (kirr/KI): values without asterisk, 25° C., pH 6.5
T2 construct: made in house
T2 sequence (P25774 115-331): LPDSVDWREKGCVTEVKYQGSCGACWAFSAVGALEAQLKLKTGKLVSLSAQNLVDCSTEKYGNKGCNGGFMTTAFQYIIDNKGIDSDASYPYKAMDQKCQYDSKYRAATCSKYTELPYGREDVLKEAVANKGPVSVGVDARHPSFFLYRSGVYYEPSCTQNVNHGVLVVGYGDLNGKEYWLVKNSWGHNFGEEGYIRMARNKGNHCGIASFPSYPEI
Procedure, shortened: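 Progress curves at 25 °C in 100 mM phosphate pH 6.5, 2.5 mM DTT, 2.5 mM EDTA, 0.01% Triton, enzyme <1 nM, 10 μM substrate, inhibitors 30-0.001 μM; AMC fluorescence ex 380/em 460 nm. kobs from nonlinear fits gave kobs/[I]; selected compounds yielded kirr, KI (substrate-corrected), kirr/KI.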

cruzain, from T. cruzi = cruzain, from T. cruzi (Trypanosoma cruzi, UniProt P25779); assay: Inhibition of cruzain, as for cathepsin L; type: biochemical; settings: for k/KI (kirr/KI): values without asterisk
Sequence of cruzain, from T. cruzi (P25779 123-337 limits assumed): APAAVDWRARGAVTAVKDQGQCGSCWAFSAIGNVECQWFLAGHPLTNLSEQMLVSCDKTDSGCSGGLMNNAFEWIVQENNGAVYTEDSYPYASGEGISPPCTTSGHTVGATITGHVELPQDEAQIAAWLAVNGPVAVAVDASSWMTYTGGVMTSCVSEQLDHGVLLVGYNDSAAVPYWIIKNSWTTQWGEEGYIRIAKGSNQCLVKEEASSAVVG
Procedure, shortened: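 Run as for cathepsin L with 1 nM cruzain in 50 mM phosphate pH […], 2.5 mM DTT, 2.5 mM EDTA, 5 μM Z-Phe-Arg-AMC, at 25 °C, inhibitors 30-0.001 μM; fluorescence (ex 380/em 460 nm) followed continuously. kobs fitted from progress curves and kobs/[I] reported; selected compounds gave kirr, KI, kirr/KI, with KI corrected by (1+[S]/Km).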

[5] = system: Leishmania donovani amastigote infected mouse peritoneal macrophages; assay: In vitro antiprotozoal activity, Leishmania donovani; type: cell-based; parameters: key to percentage inhibition, L. donovani: the term "T" indicates the molecule to have displayed cytotoxicity
Description: as §3

U87MG = assay: Matrigel barrier migration assay, U87MG; type: cell-based, human; parameters: dose or concentration left out as unconfirmed
Description: as §1, §2

[6] = system: Trypanosoma brucei extracellular bloodstream forms; assay: In vitro antiprotozoal activity, Trypanosoma brucei; type: cell-based
Description: as §3

SMILES	inhibition of U251MGn migration (U251MGn)	kirr [1]	pKi [1]	kobs /[I]* (approximate second-order inactivation constant) [1]	k/KI (kirr/KI) [1]	percentage inhibition, T. cruzi ([2]; 3 uM)	percentage inhibition, T. cruzi ([2]; 10 uM)	percentage inhibition, T. cruzi ([2]; 30 uM)	percentage inhibition, T. cruzi ([2]; 90 uM)	IC50 [3]	IC50 [4]	kirr (Cloned cathepsin S)	pKi (Cloned cathepsin S)	k/KI (kirr/KI) (Cloned cathepsin S)	pKi (cruzain, from T. cruzi)	kirr (cruzain, from T. cruzi)	k/KI (kirr/KI) (cruzain, from T. cruzi)	percentage inhibition, L. donovani ([5]; 3 uM)	percentage inhibition, L. donovani ([5]; 10 uM)	percentage inhibition, L. donovani ([5]; 30 uM)	further results
CC(C)C[C@H](NC(=O)N1CCOCC1)C(=O)N[C@H](/C=C/S(=O)(=O)c1ccccc1)CCc1ccccc1 [Mu-Leu-HphVSPh, (S)-(E)-3-(4-morpholinecarbonylleucyl)amino-5-phenyl-1-phenylsulfonyl-1-pentene]	67%	0.40 s⁻¹	6.09	28,700 M^-1 sec^-1	490,000 M^-1 sec^-1	0%	0%	11.4%	T	3 nM	200 nM	0.16 s⁻¹	8.23	26,300,000 M^-1 sec^-1	6.28	0.11 s⁻¹	213,000 M^-1 sec^-1	4.6%	0%	15.3%	percentage inhibition, L. donovani ([5]; 90 uM): T; inhibition of U87MG migration (U87MG): 53%; percentage inhibition, T. brucei ([6]; 3 uM): 11.2%; percentage inhibition, T. brucei ([6]; 10 uM): 82.2%; percentage inhibition, T. brucei ([6]; 30 uM): 84.7%; percentage inhibition, T. brucei ([6]; 90 uM): 100%
O=C(N[C@H](/C=C/S(=O)(=O)c1ccccc1)CCc1ccccc1)C(Cc1ccccc1)NC(=O)N1CCOCC1 (stereo partly drawn) [Mu-Phe-HphVSPh, (S)-(E)-3-(4-morpholinecarbonyl-phenylalanyl)amino-5-phenyl-1-phenylsulfonyl-1-pentene]	29%	0.24 s⁻¹	6.00	260,000 M^-1 sec^-1	224,000 M^-1 sec^-1	10%	10%	50.1%	T	80 nM	50 nM	0.085 s⁻¹	7.96	7,700,000 M^-1 sec^-1	5.49	0.43 s⁻¹	134,000 M^-1 sec^-1	0%	0%	9.4%	pKi ([1]; listed as Mu-Phe-Hph-VSPh): 5.96; kirr ([1]; listed as Mu-Phe-Hph-VSPh): 0.23 s⁻¹; k/KI (kirr/KI) ([1]; listed as Mu-Phe-Hph-VSPh): 201,000 M^-1 sec^-1; pKi (Cloned cathepsin S; listed as Mu-Phe-Hph-VSPh): 7.64; kirr (Cloned cathepsin S; listed as Mu-Phe-Hph-VSPh): 0.15 s⁻¹; k/KI (kirr/KI) (Cloned cathepsin S; listed as Mu-Phe-Hph-VSPh): 6,500,000 M^-1 sec^-1; percentage inhibition, L. donovani ([5]; 90 uM): T; inhibition of U87MG migration (U87MG): 63%; ED50, T. brucei [6]: 2190 nM; percentage inhibition, T. brucei ([6]; 1 uM): 10.2%; percentage inhibition, T. brucei ([6]; 3 uM): 90.5%; percentage inhibition, T. brucei ([6]; 10 uM): 82.7%; percentage inhibition, T. brucei ([6]; 30 uM): 100%; percentage inhibition, T. brucei ([6]; 90 uM): 100%
